# Laboratory results taken from patent publication US11857550B2, “Benzathine analogs” (University of Pittsburgh—Of the Commonwealth System of …, priority 2012, dated 2024).
# Experiments:
# [1] = tested on: U937 monocyte; test: U937 monocyte Trypan blue cell death (LD50); type: cell-based, human; conditions: U937 monocytes, 16 h
# Protocol: (§1) FIGS. 20A-20J is a table depicting benzathine compounds, and assay results. PBMC cells (0.6 ml at 1.5*10^6/ml) were treated with 2 ug/ml LPS for 16 hrs along with each compound at different concentrations. IL1β and TNFα cytokine release were monitored by ELISA to calculate the IC50. U937 monocyte (0.6 ml at 1.5*10^6/ml) were treated with each compound at different concentrations for 16 h. Cells were then stained with Trypan blue to differentiate dead cells, and calculate the LD50. Therapeutic index (TI)=LD50/IC50. Compounds marked in red are high value targets (low IC50, high LD50) and require further testing in vivo.
# (§2) Briefly, compounds were added to human PBMC cells at different concentrations that were exposed to […] and cytokine secretion was monitored by ELISA to determine the IC50. Compounds were also added to U937 monocytes at different concentrations, and cells were stained with trypan blue to determine the LD50. […] Several functional studies were undertaken to assess anti-inflammatory effects focusing on BC-1215.
# [2] = tested on: human PBMC cells; test: LPS-induced IL1β and TNFα cytokine release from PBMC cells (ELISA); type: cell-based; conditions: LPS-exposed human PBMC
# Protocol: as §1, §2
# [3] = tested on: U937 tumor implants; test: U937 tumor xenograft in nude mice; type: in vivo; conditions: 30 ug/ml in the drinking water
# Protocol: FIGS. 28A-281. […] A-E. Effect of BC-1258 and other compounds on growth of U937 tumor implants in nude mice, n=4 mice/group with drug concentration at 30 ug/ml in the drinking water. […] B. Tumor volume measurements over time (n=4 mice/group, *P<0.05 versus con). D. Tumor tissue from C were weighted and graphed (n=4 mice/group, *P<0.05 versus con). E. Tumors from three controls and three drug treated U937 implants in mice were collected at the end-point, and assayed for AuroraB, CaM and FBXL2 proteins by immunoblotting. F-I. Serum of each mice were collected at the end point and processed for creatinine, LDH, ALT and creatine kinase activity.
# [4] = tested on: MLE cells; test: BrdU/7-AAD FACS cell cycle and apoptosis analysis; type: cell-based, murine
# Protocol: FIGS. 27A-27G. […] A. PBMCs from 5 controls, AML, and ALL subjects were cultured in RPMI medium for 18 h. Cells were then collected, lysed, and assayed for protein immunoblotting. B-D. Human leukemia cells (U937, K562 and THP1 cells) were treated with BC-1258 at different concentrations for 16 h. Cells were collected and assayed for Aurora B, cyclin D2, cyclin D3 and FBXL2 immunoblotting. E-F. MLE cells were treated with BC-1258 at different concentrations for 16 h, cells were processed by BrdU uptake and 7-AAD staining followed by FACS cell cycle analysis (E), 2N, 4N, and 8N DNA histograms were quantitated and graphed in (F). G. Quantification of FACS analysis showing levels of apoptotic MLE cells after BC-1258 treatment at each time point.
# [5] = tested on: C57BL6 mice; test: TPA induced ear edema; type: in vivo; conditions: various doses to ears 30 min after TPA, 18 h
# Protocol: FIGS. 15A-15C. […] FIG. 15A-15C. C57BL6 mice were deeply anesthetized with ketamine (80-100 mg/kg i.p.) and xylazine (10 mg/kg i.p.). 20 μl of ethanol solution of BC-1215 was applied to ears at 8, 40, 200 ug/ear 30 min after TPA administration (2 μg/ear). Comparisons included equal volumes of ethanol (vehicle control). 18 h after TPA administration, mice were euthanized; the thickness of the ear was measured using a micrometer (FIG. 15B). Ear punch biopsies were also taken immediately, weighed and graphed (FIG. 15C).
# FIGS. 23A-23D. […] Different dose of BC-1261 was applied to ears of mice at various doses 30 min after TPA administration (2 μg/ear). A. Gross comparisons were made with equal volumes of ethanol as a vehicle control (CON). 18 h after TPA administration, mice were euthanized and the thickness of the ear was measured using a micrometer (B). Autopsy sample were also taken to measure MPO activity (C) and calculate ear edema (D). The data represent n=6 mice/group, *P<0.05 versus TPA.
# Topical application of BC-1215 as an anti-inflammatory agent was tested in a model of 12-O-tetradecanoylphorbol-13-acetate (TPA) induced ear edema (Bralley et. al., J Inflamm (LOnd), 2008. 5:p.1). Briefly, 20 μl of an ethanol solution of BC-1215 was applied to ears of mice at 8, 40, and 200 ug/ear for 30 min after TPA administration (2 μg/ear). Comparisons included equal volumes of ethanol (vehicle control). 18 h after TPA administration, mice were euthanized; the thickness of the ear was measured using a micrometer. Ear punch biopsies were also taken immediately, weighed, and graphed.
# [6] = tested on: C57BL6 mice; test: DSS induced (acute) colitis; type: in vivo; conditions: 150 μg daily i.p. or 30 μg/ml drinking water, 3.5% DSS
# Protocol: FIGS. 17A-17D. BC-1215 reduces DSS induced colonic inflammation. FIGS. 17A-FIG. 17C. C57BL6 mice were fed with water containing 3.5% dextran sulfate sodium (DSS) for up to five days. Mice were treated with either vehicle or 100 ug of BC-1215 daily (via IP injection). Mice were then euthanized; the length of the colon was measured and graphed in (FIG. 17A). Colonic tissues were also analyzed for IL1β (FIG. 17B) and TNFα (FIG. 17C) by ELISA. (n=4 mice/group, *p<0.05 versus DSS) FIG. 17D, H&E staining was performed on colonic samples. (n=4 mice/group, *p<0.05 versus DSS)
# FIGS. 24A-24E. […] A-D. C57BL6 mice were fed with water ad lib containing 3.5% dextran sulfate sodium (DSS) for up to five days. Mice were treated with either vehicle (control [CON]) or BC-1261 (150 μg) daily (via an i.p. injection), or BC-1261 were administered into drinking water at 30 μg/ml (po). Mice were then euthanized and the length of the colon was measured and graphed in (A-B). Colonic tissues were also analyzed for TNFα (C) and IL6(D). E. H&E staining was performed on colonic sections. The data represent n=4 mice/group, *P<0.05 versus DSS and **P<0.05 versus CON.
# BC-1215 ameliorates DSS induced colitis. BC-1215 was also tested in a mouse colitis model to confirm its anti-inflammatory activity. Briefly, C57BL6 mice were fed with water containing 3.5% dextran sulfate sodium (DSS) for up to five days. Mice were treated with either vehicle or 200 ug of BC-1215 daily (via IP injection). Mice were then euthanized; the length of colons was measured. […] Colonic tissue cytokine levels were analyzed. […] Thus, the FBXO3 inhibitor BC-1215 suppresses inflammation in chemical induced colitis model in mice.
# [7] = tested on: mice; test: Cigarette smoke induced chronic lung inflammation; type: in vivo; conditions: 100 ug i.p. after 5 weeks smoke, 18 h
# Protocol: FIGS. 22A-22C. […] Mice were exposed to cigarette smoke for 5 weeks before one does of i.p. injection of BC1261 (100 ug), 18 h later, mice were euthanized and lungs were lavaged with saline, harvested, and then homogenized. Lavage protein, cell counts and cytokine secretion were measured in (A-C). The data represent n=3 mice/group, *P<0.05 versus con.
# [8] = tested on: C57BL6 mice; test: DSS induced chronic colonic inflammation; type: in vivo; conditions: 30 μg/ml drinking water from day 7, 2% DSS cycles
# Protocol: FIGS. 25A-25J. […] A. C57BL6 mice were fed with water ad lib containing 2% dextran sulfate sodium (DSS) for six days, then switch to water for up to three cycles. BC-1261 was administered into drinking water at 30 μg/ml, starting at day 7. Mice were euthanized at the end of the experiment and the length of the colon was measured and graphed in (B-C). Disease index was measured and graphed in (D). Serum cytokine levels were measured in (E-F). Colonic tissues cytokines and MPO activity were also analyzed (GJ). The data represent n=7 mice/group, *P<0.05 versus CON.
# [9] = tested on: C57BL6 mice; test: Pseudomonas aeruginosa PA103 pneumonia model; type: in vivo; conditions: i.p., PA103 2.5*10^4 cfu/mouse i.t., 18 h
SMILES,LD50 [1],IC50 (cytokine secretion) [2],other results
c1cn(-c2ccc(CNCCNCc3ccc(-n4ccnc4)cc3)cc2)cn1 [BC-1207],low,high,–
Fc1ccc(CNCCNCc2ccc(-c3ccccn3)cc2)cc1 [BC-1241],low,high,–
c1cnn(-c2ccc(CNCCNCc3ccc(-n4cccn4)cc3)cc2)c1 [BC-1250],low,high,–
c1csc(-c2ccc(CNCCNCc3ccc(-c4nccs4)cc3)cc2)n1 [BC-1258],–,–,"tumor growth [3]: suppresses tumor growth in xenograft; apoptosis [4]: apoptosis; cell cycle arrest ([4]; different concentrations, 16 h): Induces G2/M arrest"
c1cnc(-c2ccc(CNCCNCc3ccc(-c4ncccn4)cc3)cc2)nc1 [BC-1261],low,high,TPA induced ear edema [5]: reduces TPA induced ear edema; DSS induced acute colonic inflammation [6]: reduces DSS induced acute colonic inflammation; smoke induced chronic lung inflammation [7]: reduces smoke induced chronic lung inflammation; DSS induced chronic colonic inflammation [8]: reduces DSS induced chronic colonic inflammation; P. aeruginosa induced lung inflammation [9]: reduces P. aeruginosa induced lung inflammation
